Data from PubChem BioAssay AID248 (DTP/NCI, 2004).
Several values for one entry are separate records, joined by “and”; a condition that tells them apart may be missing. Equal entries are not always repeated. Toxic doses and inconclusive results are not listed. No stated cut-off is given here; in the data, active means T/C of 150% or more; inactive means T/C below 125%.

Test system: L1210 leukemia ip in BDF1 mice, survival T/C
Test: NCI In Vivo Anticancer Drug Screen. Data for tumor model L1210 Leukemia (intraperitoneal) in B6D2F1 (BDF1) mice
Details: higher = longer survival
Summary of the method: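 Mice bearing the transplanted tumor received compound or vehicle. Survival of the treated group was divided by that of the vehicle-treated control group to give the ratio.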

Measured: T/C

Nc1ncn(C2OC(CO)C(O)C2O)c(=O)n1 (stereo not given)
inactive: endpoint: mean survival time, dose: 0.12 mg/kg/injection, schedule: Q01DX009 (ip), vehicle: saline 111 % of control | endpoint: mean survival time, dose: 0.23 mg/kg/injection, schedule: Q01DX009 (ip), vehicle: saline 101 % of control and 121 % of control | endpoint: mean survival time, dose: 1.0 mg/kg/injection, schedule: Q01DX005 (oral), vehicle: saline 114 % of control | endpoint: mean survival time, dose: 1.0 mg/kg/injection, schedule: Q## X008 (ip), vehicle: saline 121 % of control | endpoint: mean survival time, dose: 1.0 mg/kg/injection, schedule: Q## X040 (oral), vehicle: saline 105 % of control | endpoint: mean survival time, dose: 2.0 mg/kg/injection, schedule: Q01DX005 (oral), vehicle: saline 124 % of control | endpoint: mean survival time, dose: 2.0 mg/kg/injection, schedule: Q## X040 (oral), vehicle: saline 108 % of control | endpoint: mean survival time, dose: 2.3 mg/kg/injection, schedule: Q04DX002 (ip), vehicle: saline 117 % of control and 123 % of control | endpoint: mean survival time, dose: 3.0 mg/kg/injection, schedule: Q01DX001 (ip), vehicle: saline 119 % of control | endpoint: mean survival time, dose: 3.0 mg/kg/injection, schedule: Q01DX009 (ip), vehicle: saline with Tween-80 111 % of control | endpoint: mean survival time, dose: 6.0 mg/kg/injection, schedule: Q01DX005 (ip), vehicle: water 112 % of control | endpoint: mean survival time, dose: 6.0 mg/kg/injection, schedule: Q01DX009 (ip), vehicle: clinical formulation 103 % of control | endpoint: mean survival time, dose: 6.0 mg/kg/injection, schedule: Q01DX009 (ip), vehicle: other 104 % of control | endpoint: mean survival time, dose: 6.0 mg/kg/injection, schedule: Q01DX009 (ip), vehicle: saline 98 % of control | endpoint: mean survival time, dose: 6.0 mg/kg/injection, schedule: Q01DX009 (ip), vehicle: water 94 % of control | endpoint: mean survival time, dose: 7.2 mg/kg/injection, schedule: Q01DX009 (ip), vehicle: saline 111 % of control | endpoint: mean survival time, dose: 10.0 mg/kg/injection, schedule: Q01DX009 (ip), vehicle: saline 111 % of control | endpoint: mean survival time, dose: 12.0 mg/kg/injection, schedule: Q01DX009 (ip), vehicle: saline 98 % of control | endpoint: mean survival time, dose: 24.0 mg/kg/injection, schedule: Q01DX009 (ip), vehicle: saline 93 % of control | endpoint: mean survival time, dose: 32.0 mg/kg/injection, schedule: Q01DX001 (oral), vehicle: saline 112 % of control | endpoint: mean survival time, dose: 48.0 mg/kg/injection, schedule: Q01DX009 (ip), vehicle: saline 102 % of control | endpoint: mean survival time, dose: 64.0 mg/kg/injection, schedule: Q01DX001 (oral), vehicle: saline 111 % of control | endpoint: mean survival time, dose: 96.0 mg/kg/injection, schedule: Q## X003 (ip), vehicle: saline 114 % of control | endpoint: mean survival time, dose: 200.0 mg/kg/injection, schedule: Q01DX001 (ip), vehicle: other 118 % of control | endpoint: mean survival time, dose: 512.0 mg/kg/injection, schedule: Q## X003 (oral), vehicle: saline 111 % of control | endpoint: median survival time, dose: 1.0 mg/kg/injection, schedule: Q01DX005 (ip), vehicle: saline 120 % of control | endpoint: median survival time, dose: 3.6 mg/kg/injection, schedule: Q01DX009 (ip), vehicle: saline 100 % of control and 104 % of control | endpoint: median survival time, dose: 5.0 mg/kg/injection, schedule: Q01DX001 (ip), vehicle: saline 121 % of control and 122 % of control | endpoint: median survival time, dose: 6.0 mg/kg/injection, schedule: Q01DX009 (ip), vehicle: saline 110 % of control | endpoint: median survival time, dose: 8.4 mg/kg/injection, schedule: Q01DX009 (ip), vehicle: saline 99 % of control and 100 % of control
active: endpoint: mean survival time, dose: 0.5 mg/kg/injection, schedule: Q01DX009 (ip), vehicle: saline 156 % of control | endpoint: mean survival time, dose: 0.75 mg/kg/injection, schedule: Q01DX009 (ip), vehicle: other 161 % of control | endpoint: mean survival time, dose: 1.25 mg/kg/injection, schedule: Q01DX009 (ip), vehicle: saline 170 % of control | endpoint: mean survival time, dose: 1.3 mg/kg/injection, schedule: Q03HX008 (ip), vehicle: saline 171 % of control | endpoint: mean survival time, dose: 1.5 mg/kg/injection, schedule: Q01DX005 (ip), vehicle: clinical formulation 150 % of control | endpoint: mean survival time, dose: 1.5 mg/kg/injection, schedule: Q01DX009 (ip), vehicle: water 164 % of control and 166 % of control | endpoint: mean survival time, dose: 2.0 mg/kg/injection, schedule: Q01DX015 (ip), vehicle: other 159 % of control | endpoint: mean survival time, dose: 2.0 mg/kg/injection, schedule: Q03HX008 (ip), vehicle: saline 155 % of control | endpoint: mean survival time, dose: 2.0 mg/kg/injection, schedule: Q## X024 (ip), vehicle: saline 151 % of control | endpoint: mean survival time, dose: 2.5 mg/kg/injection, schedule: Q01DX009 (ip), vehicle: carboxymethylcellulose (CMC) 155 % of control | endpoint: mean survival time, dose: 3.0 mg/kg/injection, schedule: Q01DX005 (ip), vehicle: water 150 % of control | endpoint: mean survival time, dose: 3.0 mg/kg/injection, schedule: Q01DX009 (oral), vehicle: saline 158 % of control | endpoint: mean survival time, dose: 3.0 mg/kg/injection, schedule: Q03HX008 (ip), vehicle: saline 170 % of control | endpoint: mean survival time, dose: 3.12 mg/kg/injection, schedule: Q01DX009 (ip), vehicle: saline 164 % of control | endpoint: mean survival time, dose: 3.12 mg/kg/injection, schedule: Q04DX003 (ip), vehicle: water 157 % of control and 160 % of control | endpoint: mean survival time, dose: 4.0 mg/kg/injection, schedule: Q## X024 (ip), vehicle: saline 168 % of control | endpoint: mean survival time, dose: 6.0 mg/kg/injection, schedule: Q01DX009 (oral), vehicle: saline 172 % of control | endpoint: mean survival time, dose: 6.0 mg/kg/injection, schedule: Q## X008 (ip), vehicle: saline 156 % of control | endpoint: mean survival time, dose: 8.0 mg/kg/injection, schedule: Q01DX005 (oral), vehicle: saline 164 % of control | endpoint: mean survival time, dose: 8.0 mg/kg/injection, schedule: Q## X040 (oral), vehicle: saline 163 % of control | endpoint: mean survival time, dose: 12.0 mg/kg/injection, schedule: Q01DX001 (ip), vehicle: saline 150 % of control | endpoint: mean survival time, dose: 12.0 mg/kg/injection, schedule: Q01DX005 (ip), vehicle: saline 168 % of control | endpoint: mean survival time, dose: 12.0 mg/kg/injection, schedule: Q## X008 (ip), vehicle: saline 161 % of control and 162 % of control | endpoint: mean survival time, dose: 12.5 mg/kg/injection, schedule: Q01DX001 (ip), vehicle: saline 164 % of control | endpoint: mean survival time, dose: 12.5 mg/kg/injection, schedule: Q01DX005 (ip), vehicle: saline 172 % of control | endpoint: mean survival time, dose: 22.0 mg/kg/injection, schedule: Q01DX001 (ip), vehicle: other 153 % of control | endpoint: mean survival time, dose: 22.0 mg/kg/injection, schedule: Q01DX001 (ip), vehicle: saline 160 % of control | endpoint: mean survival time, dose: 24.0 mg/kg/injection, schedule: Q01DX001 (ip), vehicle: saline 158 % of control | endpoint: mean survival time, dose: 24.0 mg/kg/injection, schedule: Q## X008 (ip), vehicle: saline 171 % of control | endpoint: mean survival time, dose: 25.0 mg/kg/injection, schedule: Q01DX001 (ip), vehicle: saline 166 % of control and 168 % of control | endpoint: mean survival time, dose: 32.0 mg/kg/injection, schedule: Q## X003 (oral), vehicle: saline 163 % of control | endpoint: mean survival time, dose: 32.0 mg/kg/injection, schedule: Q## X024 (oral), vehicle: saline 173 % of control | endpoint: mean survival time, dose: 33.0 mg/kg/injection, schedule: Q01DX001 (ip), vehicle: saline 153 % of control | endpoint: mean survival time, dose: 64.0 mg/kg/injection, schedule: Q## X003 (oral), vehicle: saline 163 % of control and 164 % of control | endpoint: mean survival time, dose: 64.0 mg/kg/injection, schedule: Q## X008 (oral), vehicle: saline 158 % of control | endpoint: mean survival time, dose: 69.0 mg/kg/injection, schedule: Q04DX002 (ip), vehicle: saline 150 % of control | endpoint: mean survival time, dose: 75.0 mg/kg/injection, schedule: Q01DX001 (ip), vehicle: other 168 % of control | endpoint: mean survival time, dose: 96.0 mg/kg/injection, schedule: Q01DX001 (ip), vehicle: saline 174 % of control | endpoint: mean survival time, dose: 100.0 mg/kg/injection, schedule: Q01DX001 (ip), vehicle: other 162 % of control | endpoint: mean survival time, dose: 125.0 mg/kg/injection, schedule: Q01DX001 (ip), vehicle: saline 151 % of control | endpoint: mean survival time, dose: 150.0 mg/kg/injection, schedule: Q01DX001 (ip), vehicle: saline 154 % of control | endpoint: mean survival time, dose: 256.0 mg/kg/injection, schedule: Q## X003 (oral), vehicle: saline 171 % of control | endpoint: mean survival time, dose: 768.0 mg/kg/injection, schedule: Q01DX001 (oral), vehicle: saline 157 % of control | endpoint: median survival time, dose: 0.75 mg/kg/injection, schedule: Q01DX009 (ip), vehicle: saline 160 % of control | endpoint: median survival time, dose: 0.78 mg/kg/injection, schedule: Q01DX009 (ip), vehicle: saline 150 % of control | endpoint: median survival time, dose: 1.3 mg/kg/injection, schedule: Q01DX009 (ip), vehicle: saline 154 % of control and 159 % of control | endpoint: median survival time, dose: 2.0 mg/kg/injection, schedule: Q01DX005 (ip), vehicle: saline 169 % of control | endpoint: median survival time, dose: 8.0 mg/kg/injection, schedule: Q01DX005 (ip), vehicle: saline 154 % of control | endpoint: median survival time, dose: 40.0 mg/kg/injection, schedule: Q01DX001 (ip), vehicle: saline 153 % of control and 155 % of control | endpoint: median survival time, dose: 80.0 mg/kg/injection, schedule: Q01DX001 (ip), vehicle: saline 151 % of control and 155 % of control

CCCC1=NNc2n[nH]c(=S)n2N1
inactive: endpoint: mean survival time, dose: 12.5 mg/kg/injection, schedule: Q01DX009 (ip), vehicle: Klucel (hydroxypropylcellulose) (HPC) 93 % of control | endpoint: mean survival time, dose: 25.0 mg/kg/injection, schedule: Q01DX009 (ip), vehicle: Klucel (hydroxypropylcellulose) (HPC) 90 % of control | endpoint: mean survival time, dose: 50.0 mg/kg/injection, schedule: Q01DX009 (ip), vehicle: Klucel (hydroxypropylcellulose) (HPC) 98 % of control | endpoint: mean survival time, dose: 100.0 mg/kg/injection, schedule: Q04DX003 (ip), vehicle: Klucel (hydroxypropylcellulose) (HPC) 100 % of control | endpoint: mean survival time, dose: 200.0 mg/kg/injection, schedule: Q04DX003 (ip), vehicle: Klucel (hydroxypropylcellulose) (HPC) 96 % of control
